Experimental data from patent US20170196859A1, “PHARMACEUTICAL COMPOSITION COMPRISING PYRAZINE CARBOXAMIDE COMPOUND AS ACTIVE INGREDIENT” (Astellas Pharma Inc., priority 2014, published 2017).

Key:
[1] = system: human lymphoblastic leukemia cell line MOLT-4 cells; assay: Proliferation inhibition, MOLT-4 cells (CellTiter-Glo); type: cell-based; conditions: MOLT-4, 96 h, 4 days culture
Protocol: MOLT-4 is a cell lines originated from human lymphoblastic leukemia and the ITK expression has been confirmed (Mol. Pharmacol. 2012; 82:938-947). The human lymphoblastic leukemia cell line MOLT-4 cells (European Collection of Cell Cultures, 85011413) cultured in RPMI1640 medium (Sigma) containing 10% bovine serum were inoculated into 96 well plates. On the same day, DMSO solutions of the test compound B at final concentrations from 1 nM to 10 μM or only DMSO (DMSO group) were added thereto to culture the cells at 37° C. in 5% CO2 for 4 days. Thereafter, the cell number was measured using a cell counting reagent (CellTiter-Glo (registered trademark) Luminescent Cell Viability Assay (Promega)). The cell proliferation inhibition rate was calculated as the measured value in the DMSO group set as 0% inhibition and the measured value in the well only with the medium on which the cells have not been seeded set as 100% inhibition.

ITK kinase = molecular target: T1, ITK kinase (Homo sapiens, UniProt Q08881); assay: ITK kinase inhibitory activity (Mobility Shift Assay); type: biochemical; conditions: ATP 1000 μM, read-out: inhibitory % against ITK kinase activity
T1 sequence (Q08881 1-620): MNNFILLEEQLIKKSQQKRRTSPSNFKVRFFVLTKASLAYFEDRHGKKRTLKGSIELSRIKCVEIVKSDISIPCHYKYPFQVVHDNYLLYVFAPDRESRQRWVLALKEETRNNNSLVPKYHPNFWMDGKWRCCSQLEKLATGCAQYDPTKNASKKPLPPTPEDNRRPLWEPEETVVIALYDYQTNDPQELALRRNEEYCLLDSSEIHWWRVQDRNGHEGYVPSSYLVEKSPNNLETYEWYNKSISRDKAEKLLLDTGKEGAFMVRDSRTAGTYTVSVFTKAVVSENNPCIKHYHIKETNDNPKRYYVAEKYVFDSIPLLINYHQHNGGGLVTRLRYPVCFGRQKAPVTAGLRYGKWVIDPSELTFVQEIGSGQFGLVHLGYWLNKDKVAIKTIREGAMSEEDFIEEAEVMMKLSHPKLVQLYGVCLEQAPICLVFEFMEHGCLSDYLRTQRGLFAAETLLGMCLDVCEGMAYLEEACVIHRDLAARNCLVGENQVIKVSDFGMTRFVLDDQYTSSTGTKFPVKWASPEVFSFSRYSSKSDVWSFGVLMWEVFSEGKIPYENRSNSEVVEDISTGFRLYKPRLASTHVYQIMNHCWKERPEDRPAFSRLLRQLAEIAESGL
Protocol: The ITK kinase inhibitory activity was evaluated using Mobility Shift Assay system.
The test compound B was dissolved in dimethyl sulfoxide (DMSO) to prepare a solution at a 100-fold concentration as compared to the test concentration. The solution was also 25-fold diluted with an assay buffer (20 mM HEPES, 0.01% Triton X-100, 1 mM DTT, pH 7.5) to obtain a test substance solution.
5 μL of the test compound B solution at a 4-fold concentration, prepared using the aforementioned assay buffer, and 10 μL of a ITK kinase solution at a 2-fold concentration were mixed within a well of a 384 well plate, and incubated at room temperature for 30 minutes. Continuously, 5 μL of a substrate peptide (Srctide, PEPTIDE INSTITUTE, INC. #AD-995)/ATP/MgCl2 solution at a 4-fold concentration was added thereto to perform the reaction at room temperature for 1 hour. The substrate peptide was used at a final concentration of 1000 nM, ATP at a final concentration of 1000 μM, and MgCl2 at a final concentration of 5 mM. Thereafter, 60 μL of a termination buffer (127 mM HEPES, 0.01% Triton X-100, 26.7 mM EDTA, 1% DMSO, pH 7.5) was added thereto to stop the reaction. The ITK kinase activity was calculated by quantifying a product conversion ratio obtained from the substrate peptide peak height and the product (phosphorylated substrate peptide) peak height with LabChip3000 (PerkinElmer). […]

IC50 [1]: 410 nM
inhibition at 0.001 µM (ITK kinase; 1 nM test compound): 29.5%
inhibition at 0.01 µM (ITK kinase; 10 nM test compound): 92.6%
SMILES: C=CC(=O)N1CC[C@@H](Oc2nc(Nc3ccc(N4CCC(N5CCN(C)CC5)CC4)cc3)c(C(N)=O)nc2CC)C1 [test compound B, 5-{[(3R)-1-acryloylpyrrolidin-3-yl]oxy}-6-ethyl-3-({4-[4-(4-methylpiperazin-1-yl)piperidin-1-yl]phenyl}amino)pyrazine-2-carboxamide monomethanesulfonate]
